Assay results reported in US20260356840A1, “[1,2,4]TRIAZOLO[1,5-A]PYRIMIDINONE WRN INHIBITORS” (Nimbus Wadjet, Inc., priority 2023, published 2026).

Biological target: T1, human Werner helicase (Uniprot Q14191, amino acids 517-1235 with L1074F point mutation), WRN-BV08 (Homo sapiens, UniProt Q14191, L1074F)
T1 construct: Uniprot Q14191, amino acids 517-1235 with L1074F point mutation; TEV cleavable 8xHis tag (C, cleaved yes); made in house; host or cells: Sf9 insect cells (baculovirus, pFastBac)
Experiment: WRN (BV08) ADP-Glo Assay
Format: biochemical
Protocol: DNA duplex was synthesized at BGI (Shenzhen, China) and was composed of strand 1 with the sequence 5′-[…]-3′ (SEQ ID NO.: 1) and strand 2 with the sequence 5′-[…]-3′ (SEQ ID NO.: 2). DNA strands were annealed by heating to 95 °C for 5 minutes followed by slow cooling to room temperature. […] DMSO (0.1 μl) was added to columns 12, rows A-H and column 24, rows I-P for the maximum signal control.
Where RLU=relative luminescence units, sample=signal in sample well, and MIN and MAX are the respective minimum and maximum signal controls. • Four-parameter IC50 fit equation:
Y=Bottom+(Top−Bottom)/(1+(IC50/X)^Hill Slope)
Where top and bottom are normally allowed to float but may be fixed at 100 or 0 respectively in a 3-parameter fit. Y is the % inhibition and X is the compound concentration.
Molecular Biology and virus production. […] The baculovirus from the expression plasmid WRN-BV08 was generated from transfection and amplification following the manufacturer's instructions.
Sf9 cells grown in SF900II media were infected with 1:200 WRN-BV08 P2 virus and incubated for protein expression for 72 h at 27 °C. The WRN protein was purified using the following protocol. The cell pellets were thawed and resuspended in buffer A (50 mM Tris, pH 7.5, 500 mM NaCl, 1 mM TCEP, 10% Glycerol) supplemented with 0.5% CHAPS, 1 mM [COMPOUND LEFT OUT], 1 μg/ml Leupeptin, 1 μg/ml Pepstatin, and the Pierce Universal Nuclease and cocktail tablet. Cleared lysates were loaded onto a Ni Sepharose™ excel column and washed with buffer A and bound protein was eluted with buffer A supplemented with 300 mM imidazole. The eluted protein was dialyzed against buffer A and digested by His-tagged TEV (1:5 ratio) overnight at 4 °C. […] Untagged WRN protein was eluted from the column with buffer A supplemented with 20 mM imidazole, dialyzed overnight into buffer B (50 mM Tris, pH 7.5, 1 mM TCEP, 10% Glycerol) supplemented with 150 mM NaCl and loaded onto a Heparin column. Proteins were eluted with a step gradient of buffer B supplemented with 150 mM, 200 mM, 300 mM and 500 mM NaCl.

T1 sequence (Q14191 517-1235 L1074F): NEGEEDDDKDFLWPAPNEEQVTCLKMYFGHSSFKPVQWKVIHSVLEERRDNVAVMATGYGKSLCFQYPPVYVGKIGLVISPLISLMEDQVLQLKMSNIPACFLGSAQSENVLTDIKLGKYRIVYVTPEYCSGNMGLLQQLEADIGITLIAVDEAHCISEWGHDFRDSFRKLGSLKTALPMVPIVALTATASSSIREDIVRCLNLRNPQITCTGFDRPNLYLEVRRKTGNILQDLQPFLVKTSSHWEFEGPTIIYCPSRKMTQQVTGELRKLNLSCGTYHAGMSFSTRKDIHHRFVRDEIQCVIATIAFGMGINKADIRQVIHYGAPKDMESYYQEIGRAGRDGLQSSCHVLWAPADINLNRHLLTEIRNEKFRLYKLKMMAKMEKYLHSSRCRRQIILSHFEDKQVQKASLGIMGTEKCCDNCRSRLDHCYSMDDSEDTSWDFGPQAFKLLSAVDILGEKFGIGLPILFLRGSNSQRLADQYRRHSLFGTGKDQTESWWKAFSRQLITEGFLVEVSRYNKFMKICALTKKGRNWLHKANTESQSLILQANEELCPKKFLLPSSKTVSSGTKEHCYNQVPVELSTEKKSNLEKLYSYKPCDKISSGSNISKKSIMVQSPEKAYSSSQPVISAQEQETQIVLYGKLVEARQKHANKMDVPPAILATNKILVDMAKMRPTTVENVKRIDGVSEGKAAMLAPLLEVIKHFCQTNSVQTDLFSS

SMILES | IC50 [nM]
CCc1c(N2CCN(C(=O)c3nc(C)cs3)CC2)c(=O)n2nc(-c3ccnc(OC)c3)nc2n1CC(=O)Nc1ccc(C(F)(F)F)cc1Cl [Compound I-57, N-[2-chloro-4-(trifluoromethyl)phenyl]-2-[5-ethyl-2-(2-methoxypyridin-4-yl)-6-[4-(4-methyl-1,3-thiazole-2-carbonyl)piperazin-1-yl]-7-oxo-4H,7H-[1,2,4]triazolo[1,5-a]pyrimidin-4-yl]acetamide] | 100 to 500
CCc1c(N2CCN(C(=O)C(C)(C)O)CC2)c(=O)n2nc(C3=CCOCC3)nc2n1CC(=O)Nc1ccc(C(F)(F)F)cc1Cl [Compound I-18, N-[2-chloro-4-(trifluoromethyl)phenyl]-2-[2-(3,6-dihydro-2H-pyran-4-yl)-5-ethyl-6-[4-(2-hydroxy-2-methylpropanoyl)piperazin-1-yl]-7-oxo-4H,7H-[1,2,4]triazolo[1,5-a]pyrimidin-4-yl]acetamide] | 50 to 100
CCc1c(N2CCN(C(=O)[C@H]3C[C@@H](O)C3)CC2)c(=O)n2nc(C3=CCOCC3)nc2n1CC(=O)Nc1ccc(C(F)(F)F)cc1Cl [Compound I-39, N-[2-chloro-4-(trifluoromethyl)phenyl]-2-[2-(3,6-dihydro-2H-pyran-4-yl)-5-ethyl-7-oxo-6-{4-[(1s,3s)-3-hydroxycyclobutanecarbonyl]piperazin-1-yl}-4H,7H-[1,2,4]triazolo[1,5-a]pyrimidin-4-yl]acetamide] | 5 to 50
CCc1c(N2CCN(C(=O)c3nocc3O)CC2)c(=O)n2nc(-c3ccnc(OC)c3)nc2n1CC(=O)Nc1ccc(C(F)(F)F)cc1Cl [Compound I-88, N-[2-chloro-4-(trifluoromethyl)phenyl]-2-{5-ethyl-6-[4-(4-hydroxy-1,2-oxazole-3-carbonyl)piperazin-1-yl]-2-(2-methoxypyridin-4-yl)-7-oxo-4H,7H-[1,2,4]triazolo[1,5-a]pyrimidin-4-yl}acetamide] | 5 to 50
CCc1c(N2CCN(C(C)=O)CC2)c(=O)n2nc(-c3cnn(CC(C)(C)O)c3)nc2n1CC(=O)Nc1ccc(C(F)(F)F)cc1Cl [Compound I-55, 2-[6-(4-acetylpiperazin-1-yl)-5-ethyl-2-[1-(2-hydroxy-2-methylpropyl)-1H-pyrazol-4-yl]-7-oxo-4H,7H-[1,2,4]triazolo[1,5-a]pyrimidin-4-yl]-N-[2-chloro-4-(trifluoromethyl)phenyl]acetamide] | 5 to 50
CCc1c(N2CCN(C(=O)c3ncnc(C)c3O)CC2)c(=O)n2nc(-c3ccn(C4CC4)n3)nc2n1CC(=O)Nc1ccc(C(F)(F)F)cc1Cl [Compound I-33, N-[2-chloro-4-(trifluoromethyl)phenyl]-2-[2-(1-cyclopropyl-1H-pyrazol-3-yl)-5-ethyl-6-[4-(5-hydroxy-6-methylpyrimidine-4-carbonyl)piperazin-1-yl]-7-oxo-4H,7H-[1,2,4]triazolo[1,5-a]pyrimidin-4-yl]acetamide] | 5 to 50
CCc1c(N2CCN(C(=O)c3sccc3O)CC2)c(=O)n2nc(C3=CCOCC3)nc2n1CC(=O)Nc1ccc(C(F)(F)F)cc1Cl [Compound I-6, N-[2-chloro-4-(trifluoromethyl)phenyl]-2-[2-(3,6-dihydro-2H-pyran-4-yl)-5-ethyl-6-[4-(3-hydroxythiophene-2-carbonyl)piperazin-1-yl]-7-oxo-4H,7H-[1,2,4]triazolo[1,5-a]pyrimidin-4-yl]acetamide] | 5 to 50
CCc1c(N2CCN(C(=O)C(F)F)CC2)c(=O)n2nc(-c3ccnc(OC)c3)nc2n1CC(=O)Nc1ccc(C(F)(F)F)cc1Cl [Compound I-53, N-[2-chloro-4-(trifluoromethyl)phenyl]-2-{6-[4-(2,2-difluoroacetyl)piperazin-1-yl]-5-ethyl-2-(2-methoxypyridin-4-yl)-7-oxo-4H,7H-[1,2,4]triazolo[1,5-a]pyrimidin-4-yl}acetamide] | 5 to 50
CCc1c(N2CCN(C(=O)c3cnn(C)c3C)CC2)c(=O)n2nc(-c3ccnc(OC)c3)nc2n1CC(=O)Nc1ccc(C(F)(F)F)cc1Cl [Compound I-49, N-[2-chloro-4-(trifluoromethyl)phenyl]-2-{6-[4-(1,5-dimethyl-1H-pyrazole-4-carbonyl)piperazin-1-yl]-5-ethyl-2-(2-methoxypyridin-4-yl)-7-oxo-4H,7H-[1,2,4]triazolo[1,5-a]pyrimidin-4-yl}acetamide] | 5 to 50
CCc1c(N2CCN(C(=O)c3sc(C(F)(F)F)cc3O)CC2)c(=O)n2nc(C3=CCOCC3)nc2n1CC(=O)Nc1ccc(C(F)(F)F)cc1Cl [Compound I-7, N-[2-chloro-4-(trifluoromethyl)phenyl]-2-[2-(3,6-dihydro-2H-pyran-4-yl)-5-ethyl-6-{4-[3-hydroxy-5-(trifluoromethyl)thiophene-2-carbonyl]piperazin-1-yl}-7-oxo-4H,7H-[1,2,4]triazolo[1,5-a]pyrimidin-4-yl]acetamide] | 5 to 50
CCc1c(N2CCN(C(=O)c3c(F)cccc3F)CC2)c(=O)n2nc(C3=CCOCC3)nc2n1CC(=O)Nc1ccc(C(F)(F)F)cc1Cl [Compound I-10, N-[2-chloro-4-(trifluoromethyl)phenyl]-2-{6-[4-(2,6-difluorobenzoyl)piperazin-1-yl]-2-(3,6-dihydro-2H-pyran-4-yl)-5-ethyl-7-oxo-4H,7H-[1,2,4]triazolo[1,5-a]pyrimidin-4-yl}acetamide] | 5 to 50
CCc1c(N2CCN(C(C)=O)CC2)c(=O)n2nc(C3=CCOCC3)nc2n1CC(=O)Nc1ccc(C(F)(F)F)cc1Cl [Compound I-16, 2-[6-(4-acetylpiperazin-1-yl)-2-(3,6-dihydro-2H-pyran-4-yl)-5-ethyl-7-oxo-4H,7H-[1,2,4]triazolo[1,5-a]pyrimidin-4-yl]-N-[2-chloro-4-(trifluoromethyl)phenyl]acetamide] | 5 to 50

Results, then the molecule that gave them:

IC50 [nM] | SMILES
5 to 50 | CCc1c(N2CCN(C(=O)c3ccn(C)n3)CC2)c(=O)n2nc(C3=CCOCC3)nc2n1CC(=O)Nc1ccc(C(F)(F)F)cc1Cl [Compound I-30, N-[2-chloro-4-(trifluoromethyl)phenyl]-2-[2-(3,6-dihydro-2H-pyran-4-yl)-5-ethyl-6-[4-(1-methyl-1H-pyrazole-3-carbonyl)piperazin-1-yl]-7-oxo-4H,7H-[1,2,4]triazolo[1,5-a]pyrimidin-4-yl]acetamide]
5 to 50 | CCc1c(N2CCN(C(=O)CC#N)CC2)c(=O)n2nc(C3=CCOCC3)nc2n1CC(=O)Nc1ccc(C(F)(F)F)cc1Cl [Compound I-25, N-[2-chloro-4-(trifluoromethyl)phenyl]-2-{6-[4-(2-cyanoacetyl)piperazin-1-yl]-2-(3,6-dihydro-2H-pyran-4-yl)-5-ethyl-7-oxo-4H,7H-[1,2,4]triazolo[1,5-a]pyrimidin-4-yl}acetamide]
5 to 50 | CCc1c(N2CCN(C(=O)c3noc(C)n3)CC2)c(=O)n2nc(-c3ccnc(OC)c3)nc2n1CC(=O)Nc1ccc(C(F)(F)F)cc1Cl [Compound I-78, N-[2-chloro-4-(trifluoromethyl)phenyl]-2-[5-ethyl-2-(2-methoxypyridin-4-yl)-6-[4-(5-methyl-1,2,4-oxadiazole-3-carbonyl)piperazin-1-yl]-7-oxo-4H,7H-[1,2,4]triazolo[1,5-a]pyrimidin-4-yl]acetamide]
5 to 50 | CCc1c(N2CCN(C(=O)c3nn(C)cc3O)CC2)c(=O)n2nc(C3=CCOCC3)nc2n1CC(=O)Nc1ccc(C(F)(F)F)cc1Cl [Compound I-12, N-[2-chloro-4-(trifluoromethyl)phenyl]-2-[2-(3,6-dihydro-2H-pyran-4-yl)-5-ethyl-6-[4-(4-hydroxy-1-methyl-1H-pyrazole-3-carbonyl)piperazin-1-yl]-7-oxo-4H,7H-[1,2,4]triazolo[1,5-a]pyrimidin-4-yl]acetamide]
5 to 50 | CCc1c(N2CCN(C(=O)c3nnn(C)n3)CC2)c(=O)n2nc(-c3ccnc(OC)c3)nc2n1CC(=O)Nc1ccc(C(F)(F)F)cc1Cl [Compound I-74, N-[2-chloro-4-(trifluoromethyl)phenyl]-2-[5-ethyl-2-(2-methoxypyridin-4-yl)-6-[4-(2-methyl-2H-1,2,3,4-tetrazole-5-carbonyl)piperazin-1-yl]-7-oxo-4H,7H-[1,2,4]triazolo[1,5-a]pyrimidin-4-yl]acetamide]
< 5 | CCc1c(N2CCN(C(=O)c3ncc4c(c3O)CCO4)CC2)c(=O)n2nc(-c3ccnc(OC)c3)nc2n1CC(=O)Nc1ccc(C(F)(F)F)cc1Cl [Compound I-85, N-[2-chloro-4-(trifluoromethyl)phenyl]-2-[5-ethyl-6-(4-{4-hydroxy-2H,3H-furo[2,3-c]pyridine-5-carbonyl}piperazin-1-yl)-2-(2-methoxypyridin-4-yl)-7-oxo-4H,7H-[1,2,4]triazolo[1,5-a]pyrimidin-4-yl]acetamide]
